The text below walks through data of ChEMBL document CHEMBL1201862, “PubChem BioAssay data set” (2004).

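How tested: cells in 96-well plates exposed to compound for 48 hours at five concentrations. GI50 marks 50% less growth.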 Active and inactive are the calls of the source. Cut-off read from the data, not from the text of the source: active = GI50 up to about 1.1 µM and inactive = higher.

Test systems include 786-0; A549; CCRF-CEM; COLO 205; EKVX; HCT-116; HCT-15; HL-60; HT-29; IGROV-1; MCF7; MDA-MB-435; OVCAR-4; RPMI-8226; SK-OV-3; SW-620; U-251; UACC-257; SN12C; NCI-H226.
What all share (experiment): growth of human tumour cells (NCI), 48 h

On to `O[C@@]12Cc3c([nH]c4ccccc34)[C@@H]3Oc4c(-c5ccccc5)ccc5c4[C@@]31CCN(CC1CC1)[C@@H]2C5`, for which the GI50 in the experiment on 786-0 is 1.65 µM (inactive); in the experiment with A549, 1.89 µM (inactive); in the experiment on CCRF-CEM, 2.92 µM (inactive); with COLO 205, 1.81 µM (inactive); in the experiment on EKVX it was 2.01 µM (inactive); with HCT-116 it was 1.73 µM (inactive). Further, the GI50 is 1.95 µM in the experiment with HCT-15; 2.06 µM (inactive) in the experiment with HL-60; 1.77 µM (inactive) in the experiment on HT-29; 4.07 µM (inactive) with IGROV-1; 1.83 µM (inactive) in the experiment with MCF7; 1.77 µM (inactive) with MDA-MB-435. The GI50 in the experiment on OVCAR-4 was 2.71 µM (inactive); with RPMI-8226, 3.65 µM (inactive); in the experiment on SK-OV-3 it was 2.95 µM (inactive); in the experiment with SW-620, 2.11 µM (inactive); in the experiment with U-251, 1.71 µM (inactive); with UACC-257, 1.84 µM (inactive).
Consider `O=C1N(c2ccccc2)C(=S)/C(=C/c2ccc(Cl)cc2)N1c1ccc(Cl)cc1`, for which the GI50 is 23.2 µM (inactive) in the experiment on 786-0; > 100 µM (inactive) in the experiment on A549; 18.1 µM (inactive) in the experiment with CCRF-CEM; 27.5 µM (inactive) in the experiment on COLO 205; 38.5 µM (inactive) with EKVX; 20 µM (inactive) with HCT-116. Also, the GI50 with HCT-15 was 26.9 µM; in the experiment on HL-60, 32.5 µM (inactive); in the experiment with HT-29, 59.3 µM (inactive); in the experiment with IGROV-1 it was 41.3 µM (inactive); with MCF7, 81.1 µM (inactive); in the experiment on MDA-MB-435, 35.6 µM (inactive). For the same compound, the GI50 was 28.2 µM (inactive) with OVCAR-4; 18.3 µM (inactive) in the experiment on RPMI-8226; 27.1 µM (inactive) in the experiment on SK-OV-3; 52 µM (inactive) in the experiment with SN12C; 36.1 µM (inactive) in the experiment on SW-620; 28.1 µM (inactive) with U-251. The GI50 in the experiment with UACC-257 was 55.8 µM (inactive).
Regarding `O=C1C(Cl)=C(Cl)C(Cl)(Cl)C(Cl)C1(Cl)Cl` (configuration not stated), the GI50 is 37.8 µM (inactive) in the experiment on 786-0; 20.9 µM (inactive) in the experiment on A549; 27.3 µM (inactive) in the experiment with CCRF-CEM; 17.9 µM (inactive) in the experiment with COLO 205; 20.8 µM (inactive) with EKVX; 18.8 µM (inactive) in the experiment on HCT-116. Also, the GI50 in the experiment on HCT-15 was 29.6 µM; in the experiment with HL-60, 18.4 µM (inactive); with HT-29, 24.5 µM (inactive); in the experiment with IGROV-1, 17 µM (inactive); in the experiment with MCF7 it was 22.7 µM (inactive); in the experiment on MDA-MB-435 it was 23.1 µM (inactive). The GI50 with RPMI-8226 was 19.6 µM (inactive); in the experiment on SK-OV-3, 26.2 µM (inactive); in the experiment with SN12C, 20 µM (inactive); in the experiment with SW-620 it was 22 µM (inactive); in the experiment with U-251, 19 µM (inactive); with UACC-257 it was 18.4 µM (inactive).
As for `C=CC(C)CCC(C/C=C(\C)CCC=C(C)C)C(=C)CCCC(C)C` (configuration not stated), the GI50 in the experiment on 786-0, in the experiment on A549, in the experiment with CCRF-CEM, in the experiment on COLO 205, in the experiment on EKVX and in the experiment on HCT-116 was > 100 µM (inactive) each time. The GI50 in the experiment with HCT-15 was more than 100 µM; with HL-60, > 100 µM (inactive); in the experiment with HT-29, > 100 µM (inactive); with IGROV-1 it was > 100 µM (inactive); in the experiment with MCF7, > 100 µM (inactive); with MDA-MB-435, > 100 µM (inactive). Moreover, the GI50 in the experiment with OVCAR-4, in the experiment on RPMI-8226, with SK-OV-3, with SN12C, in the experiment with SW-620 and in the experiment with U-251 was > 100 µM (inactive) in each case. Further, the GI50 in the experiment with UACC-257 was > 100 µM (inactive).
As for `CN1C(=O)C(CC(=O)O)NC1=S` (configuration not stated), the GI50 with 786-0 was > 100 µM (inactive); in the experiment on A549, > 100 µM (inactive); in the experiment with CCRF-CEM, > 100 µM (inactive); with COLO 205 it was > 100 µM (inactive); in the experiment with EKVX, 56.6 µM (inactive); with HCT-116 it was 95.5 µM (inactive). Further, the GI50 with HCT-15 is more than 100 µM; in the experiment with HL-60 it was > 100 µM (inactive); in the experiment on HT-29, > 100 µM (inactive); in the experiment with IGROV-1 it was 99.5 µM (inactive); in the experiment with MCF7, 54 µM (inactive); with MDA-MB-435, > 100 µM (inactive). The GI50 in the experiment on RPMI-8226, in the experiment with SK-OV-3, with SN12C, with SW-620, with U-251 and in the experiment with UACC-257 was > 100 µM (inactive) in each case.
In the case of `CC1CCC(C(C)C2C(O)CC3C4CC=C5CC(O)CCC5(C)C4CCC32C)NC1` (configuration not stated), the GI50 is 32.2 µM (inactive) in the experiment with 786-0; 83 µM (inactive) in the experiment on A549; > 100 µM (inactive) in the experiment with COLO 205; > 100 µM (inactive) in the experiment with EKVX; 45.3 µM (inactive) in the experiment on HCT-116; 44 µM in the experiment with HCT-15. The GI50 with HL-60 was 17.3 µM (inactive); in the experiment on HT-29 it was 43.1 µM (inactive); in the experiment with MCF7, 39.4 µM (inactive); in the experiment on MDA-MB-435 it was 30.9 µM (inactive); with NCI-H226, 70.8 µM (inactive); in the experiment with OVCAR-4, 20.2 µM (inactive). Also, the GI50 was > 100 µM (inactive) in the experiment with SK-OV-3; 20.3 µM (inactive) with SN12C; 31.7 µM (inactive) in the experiment on SW-620; 24.4 µM (inactive) in the experiment on U-251; 34.5 µM (inactive) in the experiment on UACC-257.
For the compound `COc1cc(Br)cc2cc(-c3cn4ccsc4n3)c(=O)oc12`, the GI50 in the experiment on 786-0 is 42.8 µM (inactive); in the experiment with A549, 30.3 µM (inactive); with CCRF-CEM, 35 µM (inactive); in the experiment on COLO 205 it was 57.3 µM (inactive); in the experiment with EKVX, 29.2 µM (inactive); in the experiment with HCT-116, 25.6 µM (inactive). Besides, the GI50 in the experiment on HCT-15 was 33 µM; in the experiment with HL-60, 29 µM (inactive); in the experiment with HT-29 it was 40.2 µM (inactive); in the experiment on IGROV-1, 19.9 µM (inactive); in the experiment with MCF7 it was 7.19 µM (inactive); in the experiment on MDA-MB-435, 21.6 µM (inactive). The GI50 was 51.2 µM (inactive) in the experiment on OVCAR-4; 33.2 µM (inactive) in the experiment on RPMI-8226; 33.7 µM (inactive) with SK-OV-3; 28.1 µM (inactive) in the experiment with SN12C; 36 µM (inactive) in the experiment on SW-620; 30 µM (inactive) in the experiment with U-251. For the same compound, the GI50 with UACC-257 was 37.6 µM (inactive).
For the compound `COc1ccc(/C=C2\CCC(CNc3ccc(OC)cc3)C2=O)cc1` (configuration not stated), the GI50 with 786-0 was 9.51 µM (inactive); with A549, 36.4 µM (inactive); in the experiment on CCRF-CEM it was 3.37 µM (inactive); in the experiment on COLO 205 it was 15.7 µM (inactive); with EKVX, 30.3 µM (inactive); in the experiment on HCT-116 it was 11 µM (inactive). In addition, the GI50 in the experiment on HCT-15 was 6.78 µM; with HL-60, 3.09 µM (inactive); with HT-29, 14.3 µM (inactive); with IGROV-1, 13.9 µM (inactive); with MCF7, 2.61 µM (inactive); in the experiment on MDA-MB-435, 20.8 µM (inactive). For the same compound, the GI50 in the experiment with NCI-H226 was > 100 µM (inactive); in the experiment with OVCAR-4 it was 23.4 µM (inactive); in the experiment with SK-OV-3 it was > 100 µM (inactive); with SN12C, 16 µM (inactive); in the experiment with SW-620, 3.5 µM (inactive); in the experiment with U-251, 18.7 µM (inactive). Besides, the GI50 in the experiment on UACC-257 was 17.5 µM (inactive).
Turning to `O=C1/C(=C/Cc2ccco2)N=C(c2ccccc2)N1c1nc2c(Cl)cc(Cl)cc2s1`, the GI50 was 44.8 µM (inactive) in the experiment on 786-0; 26.4 µM (inactive) in the experiment with A549; 17.9 µM (inactive) in the experiment on CCRF-CEM; 40.5 µM (inactive) with COLO 205; 15 µM (inactive) in the experiment on EKVX; 27.7 µM (inactive) in the experiment with HCT-116. In addition, the GI50 in the experiment with HCT-15 is 27.9 µM; with HL-60, 20.9 µM (inactive); in the experiment on HT-29, 30.8 µM (inactive); with IGROV-1 it was 29.9 µM (inactive); with MCF7 it was 25.6 µM (inactive); with MDA-MB-435, 20.5 µM (inactive). Further, the GI50 is 21.3 µM (inactive) in the experiment with OVCAR-4; 12.4 µM (inactive) in the experiment on RPMI-8226; 35.2 µM (inactive) in the experiment on SK-OV-3; 27 µM (inactive) in the experiment with SN12C; 39 µM (inactive) in the experiment on SW-620; 27 µM (inactive) in the experiment on U-251. For the same compound, the GI50 in the experiment with UACC-257 is 34.4 µM (inactive).
Turning to `O=C(c1ccccc1)n1c2ccc(Br)cc2c2nc3ccccc3nc21`, the GI50 with 786-0 is 37.8 µM (inactive); with CCRF-CEM it was 58.9 µM (inactive); in the experiment on COLO 205 it was > 100 µM (inactive); with EKVX, > 100 µM (inactive); in the experiment with HCT-116 it was > 100 µM (inactive); in the experiment on HCT-15 it was more than 100 µM. The GI50 is > 100 µM (inactive) in the experiment with HL-60; > 100 µM (inactive) in the experiment on HT-29; 67.6 µM (inactive) with IGROV-1; 43.8 µM (inactive) in the experiment on MCF7; > 100 µM (inactive) in the experiment on MDA-MB-435; > 100 µM (inactive) in the experiment with NCI-H226. In addition, the GI50 with OVCAR-4 was 48.6 µM (inactive); with RPMI-8226, 27.7 µM (inactive); with SN12C, > 100 µM (inactive); in the experiment with SW-620 it was > 100 µM (inactive); in the experiment with U-251, 65 µM (inactive); with UACC-257, > 100 µM (inactive).
Consider `O=C(/C=C/c1ccccc1)c1cc(CN2CCOCC2)c(O)c(CN2CCOCC2)c1`, for which the GI50 in the experiment on 786-0 is 9.42 µM (inactive); in the experiment with A549, 17.9 µM (inactive); in the experiment on CCRF-CEM it was 2.71 µM (inactive); in the experiment with COLO 205, 11.3 µM (inactive); in the experiment with EKVX it was 25.3 µM (inactive); in the experiment with HCT-116, 12.6 µM (inactive). Further, the GI50 was 7.5 µM in the experiment with HCT-15; 4.57 µM (inactive) in the experiment on HL-60; 17.4 µM (inactive) in the experiment on HT-29; > 100 µM (inactive) with IGROV-1; 14.7 µM (inactive) in the experiment on MCF7; 14.5 µM (inactive) in the experiment on MDA-MB-435. For the same compound, the GI50 with NCI-H226 was 26.6 µM (inactive); in the experiment with RPMI-8226 it was 4.55 µM (inactive); in the experiment with SN12C it was 11.9 µM (inactive); in the experiment on SW-620 it was 12.3 µM (inactive); with U-251 it was 4.51 µM (inactive); in the experiment on UACC-257 it was 14.3 µM (inactive).
